Reference: US9573975B2, “Melanoma antigen peptide and uses thereof” (INSERM (INSTITUT NATIONAL DE LA SANTE ET DE LA RECHERCHE …, priority 2012, dated 2017)

How the values were obtained:
[1] = tested on: CD4 T cells in PBMC from healthy donors; assay: PBMC from healthy donors stimulated with MELOE-1, restimulated with overlapping peptides, CD4/TNF-α staining; type: cell-based, human; conditions: for healthy donors in whom CD4 responses against the region were detected: seven healthy donors, TNFα production
Procedure: FIG. 1: (A) Percentages of TNF-α producing CD4 T cells among positive microcultures. Fourteen days after PBMC stimulation with MELOE-1 whole polypeptide (2-46), microcultures were re-stimulated with each indicated peptide during 5 hours. TNF-α production was then assessed by a double labeling TNF-α-CD4. Results were analyzed with a non-parametric test (Kruskal-Wallis) followed by a Dunns post-test. (B) Frequency of microcultures containing CD4 T cells specific for MELOE-1 peptides (assessed by TNF-α intracellular staining after re-stimulation with the 4 indicated peptides). 624 microcultures (from 7 healthy donors) were analyzed by a contingency table followed by a Fisher exact test.
PBMC from healthy donors were stimulated with 10 μM of MELOE-1. After 14 days, the presence of CD4 T cells specific for the different regions of MELOE-1 was assessed by restimulating cells with MELOE-12-21, MELOE-111-30, MELOE-118-37 and MELOE-126-46 peptides, followed by CD4/TNF-α double staining and flow cytometry analysis. Between brackets is indicated the mean % of TNF-α producing CD4 T cells, in positive microcultures. NA: not available.
PBMC from healthy donors or melanoma patients (2·10^5 cells/well) were cultured for 14 days with 10 μM of MELOE-1 whole antigen (46 amino acids) in RPMI medium supplemented with 8% HS, 50 IU/ml of rIL-2 (Chiron, France) and L-Glutamin, in 96-well multiplates. Micro cultures were then restimulated individually with each overlapping peptide (MELOE-12-21, MELOE-111-30, MELOE-118-37, MELOE-126-46 or MELOE-122-46 for melanoma patients) in the presence of 10 μg/mL brefeldin A for 5 hours and the percentage of CD4^+ specific T cells was assessed by TNF-α, IFN-γ or IL-4 intracellular staining A negative control without peptide was included in all experiments.
(§1) Lymphocytes were stimulated for 5 hours in the presence of brefeldin A (10 μg/mL) either with peptide alone (10 μM) in an autopresentation assay or with B-EBV or HLA-class II expressing melanoma cells pulsed 2 hours with the cognate peptide, at a ratio 1:2. In some experiments, blocking mAb against HLA-DP (clone B7.21 from Dr Charron, UMR940, Paris), HLA-DQ (clone SPVL3, Beckman Coulter) or HLA-DR (clone L243, BD Biosciences) were added at a concentration of 12.5 μg/ml. Cells were then stained with APC-conjugated anti-CD4 mAb, fixed with 4% paraformaldehyde, labeled with PE-conjugated anti-cytokine mAb and analyzed by flow cytometry.
Our purpose was to look for the existence of class II helper epitopes all along MELOE-1 sequence (SEQ ID NO: 20), in order to document the immunogenicity of the different regions of this melanoma antigen. We stimulated 2·10^7 PBMC from seven healthy donors with MELOE-1 whole antigen and tested, after a 14-day culture period the presence of CD4 T cells specific for each region of the protein. Microcultures were screened for TNFα production by CD4+ T cells, after restimulation with four MELOE-1 derived overlapping peptides (Table I), in an autopresentation assay. […] On the contrary, the central region 18-37, containing an already described DR11-restricted epitope (24-37) located just at the end of this 20-mer peptide (Rogel et al., 2011), induced specific responses in microcultures deriving from only 2/7 donors (HD9 and HD17, both expressing the DR11 element). In these two donors, we detected 6 and 7% of positive microcultures, containing between 0.6 to 3.7% of TNFα producing CD4 T cells.

[2] = tested on: MELOE-1 specific T cell clones; assay: HLA restriction of MELOE-1 specific T cell clones (anti-HLA blocking antibodies, HLA-matched B-EBV cell lines); type: cell-based, human
Procedure: FIG. 3: HLA-restricting element of MELOE-1 specific T cell clones and reactivity against HLA-matched melanoma cell lines. The HLA restriction of MELOE-1 specific T cell clones was first assessed using anti-HLA blocking antibodies (upper panel). T cell clones were stimulated for 5 hours in the presence of brefeldin A (10 μg/mL) either with peptide alone (10 μM) in an autopresentation assay and in presence or not of blocking antibodies at a concentration of 12.5 μg/mL. HLA restriction was confirmed with HLA-matched B-EBV cell lines pulsed 2 hrs with the cognate peptide, at a ratio 1:2 (middle panel). Reactivity of each T cell clone against HLA-class II expressing melanoma cells was assessed, in presence or not of exogeneous peptide (lower panel). After 5 hours of stimulation, cells were then stained with APC-conjugated anti-CD4 mAb, fixed with 4% paraformaldehyde, labeled with PE-conjugated anti-TNF-α mAb and analyzed by flow cytometry.
as §1
In order to formally characterize the recognized epitopes, we derived CD4 T cell clones specific for each region of MELOE-1 by limiting dilution, from microcultures of healthy donors or melanoma patients, containing at least 0.5% of specific CD4 T cells. We succeeded to derive CD4 specific T cell clones from HD17, HD22, HD25 and Pt≠3 microcultures, which were reactive against MELOE-12-21 (HD22), MELOE-111-30 (HD17 and Pt≠3) and MELOE-126-46 (HD25). From each cloning experiment, we obtained between one and ten reactive CD4 T cell clones, that turned out to be the same clonotype after CDR3B sequencing (Table IV). A single CD4 T cell clone for each specificity was used for further experiments. The HLA-restriction was determined for each T cell clone, first by using HLA-class II blocking monoclonal antibodies (FIG. 3, upper panel), and further by testing the recognition of HLA-matched B-EBV cell lines loaded with each recognized long peptide (FIG. 3 middle panel). The two T cell clones named 9C12 and 4E2, derived from HD22 and HD25 and specific for MELOE-12-21 and MELOE-126-46 were restricted by the HLA-DQβ1*0202 and the DQβ1*0201 molecules respectively. […]

SCVGYPDEATSREQFLPSEG (SCVGYPDEATSREQFLPSEC) [MELOE-12-21]
positive microcultures ([1]; healthy donor HD28): 62%
healthy donors in whom CD4 responses against the region were detected [1]: 6/7
HLA-restricting element of the peptide-specific T cell clone ([2]; T cell clone 9C12 (from HD22)): HLA-DQβ1*0202

TSREQFLPSEGAACPPWHPS [MELOE-111-30]
mean % of TNF-α producing CD4 T cells, in positive microcultures ([1]; donor HD24): (2% ± 1.4)
mean % of TNF-α producing CD4 T cells, in positive microcultures ([1]; donor HD27): (5% ± 3.4)
frequency of positive microcultures versus the three other regions of MELOE-1 ([1]; healthy donors, Fisher exact test, p<0.0001): significantly higher
healthy donors in whom CD4 responses against the region were detected [1]: each tested donor
HLA-restricting element of the peptide-specific T cell clone ([2]; T cell clone 1A5): HLA-DRβ1*1101
HLA-restricting element of the peptide-specific T cell clone ([2]; T cell clone 5F9): HLA-DRβ1*0101
